Test results taken from PubChem BioAssay (NCI).
Values joined by “and” are separate entries in the source; they are usually repeats but may differ in a detail not shown here. Equal entries are not always repeated.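 Five concentrations, 48 hours, 96-well plates. Here, GI50 denotes the concentration required for 50% inhibition of growth. TGI: concentration producing complete growth inhibition.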 Where a SMILES comes first, the peptide text is derived from it. [ ]: non-standard residue; d: D form. The star is where a group is joined. ξ: configuration not given here. X16 = COC1=CC(=O)N(C(=O)C(O*)C(C)C)C1Cc1ccccc1; ξNMe2Val = CC(C)C(C(=O)*)N(C)C; NMeV = CN[CH](C(=O)O)C(C)C

Columns and labels:
Experiment in all cases: NCI tumour cell line growth inhibition, 48 h
BT-549 breast = test system: BT-549 breast
UACC-257 melanoma = test system: UACC-257 melanoma
DMS 114 small cell lung = test system: DMS 114 small cell lung
DMS 273 small cell lung = test system: DMS 273 small cell lung
LXFL 529 NSCLC = test system: LXFL 529 NSCLC
RXF-631 renal = test system: RXF-631 renal
M19-MEL melanoma = test system: M19-MEL melanoma
P388 leukemia = test system: P388 leukemia
P388/ADR leukemia = test system: P388/ADR leukemia
SN12K1 renal = test system: SN12K1 renal
SNB-78 CNS = test system: SNB-78 CNS
786-0 renal = test system: 786-0 renal

SMILES | TGI (BT-549 breast) [µM] | TGI (UACC-257 melanoma) [µM] | TGI (DMS 114 small cell lung) | TGI (DMS 273 small cell lung) [µM] | TGI (P388/ADR leukemia) [µM] | TGI (SN12K1 renal) [µM] | TGI (SNB-78 CNS) [µM] | also measured
COc1ccc2c(O)c3[n+](cc2c1OC)CCc1cc2c(cc1-3)OCO2 | > 100 | > 100 |  |  |  |  |  | 
COc1ccc(C(=O)C2CC3(CCC2(O)c2ccc(OC)cc2)CC(=O)Nc2ccccc2C3=O)cc1 (stereo unspecified) | > 100 | > 100 |  |  |  |  |  | 
OCC(O)COc1ccc(Br)cc1 (stereo unspecified) |  | > 100 | > 100 µM | > 100 |  |  |  | TGI (LXFL 529 NSCLC): > 100 µM; TGI (RXF-631 renal): > 100 µM
Nc1cc2c(cc1[N+](=O)[O-])[nH]c1c(-c3ccccc3)nccc12 |  | 42.4 | 35.7 µM | 48.9 | 44.5 | 67.7 | > 58.2 | TGI (M19-MEL melanoma): 42.7 µM; TGI (P388 leukemia): 41 µM
COC1=CC(=O)N(C(=O)C(OC(=O)C2CCCN2C(=O)C2CCCN2C(=O)C(C(C)C)N(C)C(=O)C(NC(=O)C(C(C)C)N(C)C)C(C)C)C(C)C)C1Cc1ccccc1 (stereo unspecified) (ξNMe2Val-V[NMeV]PP-X16; configuration not given here) |  |  | 0.00601 µM and 0.00714 µM | < 0.0004 | 0.556 | 0.000527 | 0.811 | GI50 (DMS 114 small cell lung): < 0.0004 µM; GI50 (DMS 273 small cell lung): < 0.0004 µM; GI50 (M19-MEL melanoma): < 0.0004 µM; TGI (M19-MEL melanoma): > 4 µM; GI50 (SNB-78 CNS): < 0.0004 µM
Cc1ccc(N=Nc2c(O)c3ccccc3[nH]c2=O)c(S(=O)(=O)N(C)C)c1 | > 100 | > 100 |  |  |  |  |  | TGI (786-0 renal): > 100 µM
Cc1ccc(OP2(=O)Oc3ccc4ccccc4c3CN2c2ccc(Cl)cc2)cc1C (stereo unspecified) |  | > 100 | > 100 µM | > 100 | > 100 | > 100 | > 100 | TGI (M19-MEL melanoma): > 100 µM; TGI (P388 leukemia): > 100 µM
O=C(NCc1cn(Cc2cccc(Oc3ccccc3)c2)nn1)c1cccnc1Nc1ccccc1 | 8.53 | 86.4 |  |  |  |  |  | GI50 (BT-549 breast): 2.8 µM; GI50 (UACC-257 melanoma): 14.2 µM
CCOc1ncn(-c2ccc(NC(=S)Nc3cccc(O)c3)cc2)n1 | > 100 | > 100 |  |  |  |  |  | 
COC[C@H]1C(=O)NCC(=O)N2NCCC[C@H]2C(=O)N(O)[C@H](C)C(=O)O[C@@H](C(C)C)[C@H](NC(=O)[C@](C)(O)[C@]2(O)CC[C@@H](CC(C)C)[C@H](C)O2)C(=O)N2NCCC[C@@H]2C(=O)N1O |  | 0.0292 |  |  |  |  |  | GI50 (UACC-257 melanoma): 0.015 µM
CO/C(=N\N=C(/C)C(F)(F)F)c1ccncc1 | > 100 |  |  |  |  |  |  | 
CC1(C)CCc2c(cc3c(c2O)CCC(C)(C)O3)O1 | > 100 | > 100 |  |  |  |  |  | 
C=C1CC2CC[C@@]34C[C@@H]5O[C@@H]6C(O[C@H]7CC[C@H](CC(=O)OC8[C@@H](C)C9OC%10C[C@]%11(C[C@@H]%12O[C@@]%13(C[C@@H](C)[C@@H]%12O%11)C[C@H](C)[C@@H]%11OC%12CC(C(O)CO)OC%12C[C@@H]%11O%13)OC%10CC9O[C@H]8C[C@H]8O[C@@H](CC[C@@H]1O2)C[C@@H](C)C8=C)O[C@@H]7[C@@H]6O3)C5O4 (stereo partly specified) |  |  | 0.00428 µM and 0.0198 µM | < 0.000148 | 0.13 | 0.0162 | 1.32 | GI50 (DMS 273 small cell lung): < 0.000148 µM; TGI (P388 leukemia): 0.0156 µM; TGI (RXF-631 renal): 0.0034 µM; GI50 (SNB-78 CNS): < 0.000148 µM
C=C/C(C)=C/[C@H](C)C(=O)C[C@H](O)CC1CC(=O)NC(=O)C1 |  | 97.9 | > 100 µM | > 100 | > 100 | > 100 | > 100 | TGI (M19-MEL melanoma): > 100 µM; TGI (P388 leukemia): > 100 µM
